According to the supplement of paper PMC10702517:
± gives the standard deviation.

How the values were obtained:
[1] = chemical recovery from spiked human plasma; higher = better extraction; settings: pooled human plasma
[2] = chemical recovery into PDMS from spiked human plasma; higher = better extraction; settings: pooled human plasma, extraction method: PES with PDMS
[3] = chemical recovery by SPE of plasma after PDMS sampling; higher = better extraction; settings: pooled human plasma, extraction method: HLB SPE of plasma after PES
[4] = extraction method: SPE only (HLB 96-well), PES comparison experiment
[5] = extraction method: solvent precipitation (ACN + hexane)
[6] = extraction method: SPE only (HLB 96-well)
[7] = extraction method: PES+SPE (3 d PDMS equilibration then HLB SPE)
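For chemical recovery by SPE of plasma after PDMS sampling in this document: over 400 spiked chemicals quantified by LC-HRMS or GC-HRMS via internal standard calibration, recovery relative to spike mix added to unspiked plasma extract to correct matrix effects.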

SMILES	chemical recovery [1, 4]	chemical recovery [1, 5]	chemical recovery into PDMS ([2]; equilibration time (d): 1)	chemical recovery into PDMS ([2]; equilibration time (d): 3)	chemical recovery into PDMS ([2]; equilibration time (d): 6)	chemical recovery by SPE of plasma ([3]; equilibration time (d): 1)	chemical recovery by SPE of plasma ([3]; equilibration time (d): 3)	chemical recovery by SPE of plasma ([3]; equilibration time (d): 6)	chemical recovery [1, 6]	chemical recovery [1, 7]
OC(Cc1ccccc1Cl)(Cn1cncn1)C1(Cl)CC1 (configuration not stated) [Prothioconazole-desthio]	47 ± 6.8%	89.2 ± 4%	36.2 ± 2.6%	38.6 ± 2%	38.5 ± 1.7%	0.693 ± 0.059%	0.829 ± 0.22%	0.428 ± 0.025%		
c1cc2ccc3cccc4ccc(c1)c2c34 [Pyrene]	19.4 ± 2.8%			79.6 ± 17%	77.8 ± 20%	4.17 ± 2.2%	5.06 ± 1.2%	3.59 ± 0.37%	19.5 ± 5.1%	
c1ccc2ncccc2c1 [Quinoline]			8.77 ± 5.3%	9.55 ± 7.5%	4.43 ± 4.2%	0.053 ± 0.092%	0.00565 ± 0.0098%	0.0105 ± 0.018%	16.5 ± 4.6%	
Fc1ccc(Oc2ccnc3cc(Cl)cc(Cl)c23)cc1 [Quinoxyfen]	31.6 ± 5.7%	96.2 ± 9.7%	48 ± 4.7%	50.5 ± 5.9%	48.7 ± 2%		0.232 ± 0.06%		57.2 ± 16%	
Cc1nc2n(c(=O)c1CCN1CCC(c3noc4cc(F)ccc34)CC1)CCCC2 [Risperidone]		73.2 ± 3.6%	0.00139 ± 0.0024%	0.000765 ± 0.0018%		4.71 ± 0.66%	3.9 ± 0.9%	2.32 ± 0.59%		
CN[C@H]1CC[C@@H](c2ccc(Cl)c(Cl)c2)c2ccccc21 [Sertraline]	40.5 ± 8.4%	72.8 ± 3.8%	0.493 ± 0.065%	0.434 ± 0.081%	0.535 ± 0.27%	0.296 ± 0.11%	0.321 ± 0.11%	0.0944 ± 0.088%	71.9 ± 9.3%	1.09 ± 0.4%
CCNc1nc(Cl)nc(NCC)n1 [Simazine]	48.6 ± 5.5%	60.6 ± 5.9%	30.5 ± 1.1%	35.8 ± 1.3%	38.6 ± 2.5%	9.65 ± 1.2%	7.56 ± 1.3%	4.81 ± 0.55%	43.4 ± 2.3%	47.8 ± 5.9%
CCNc1nc(NCC)nc(SC)n1 [Simetryn]	46.7 ± 4.3%	70.9 ± 3.6%	21.2 ± 8.1%	25.4 ± 8.6%	28.9 ± 5.6%	12.9 ± 2.2%	5.73 ± 0.83%	3.34 ± 0.47%	41.6 ± 3.2%	
CC[C@H]1CCC[C@H](O[C@H]2CC[C@H](N(C)C)[C@@H](C)O2)[C@@H](C)C(=O)C2=C[C@@H]3[C@@H](C=C[C@@H]4C[C@@H](O[C@@H]5O[C@@H](C)[C@H](OC)[C@@H](OC)[C@H]5OC)C[C@@H]34)[C@@H]2CC(=O)O1 [Spinosyn A]	39.5 ± 10%	71.7 ± 10%	0.00824 ± 0.014%	0.0193 ± 0.034%	0.00695 ± 0.012%	0.0715 ± 0.12%	0.155 ± 0.14%	0.0384 ± 0.0082%		
CS(=O)(=O)c1ccc(C(=O)C2C(=O)CCCC2=O)c(Cl)c1 [Sulcotrione]	51.3 ± 2.9%	72.8 ± 3.6%			0.00153 ± 0.0027%	53.9 ± 7%	59.9 ± 2.5%	54.5 ± 2%	47.6 ± 3.3%	57 ± 5.9%
O=P(OC(CCl)CCl)(OC(CCl)CCl)OC(CCl)CCl [TDCPP]	50.5 ± 5.6%		35.2 ± 3%	37.4 ± 4.4%	35.8 ± 3%	4.16 ± 3.7%	4.02 ± 4.5%	2.14 ± 3.7%	46.5 ± 0.97%	
CC(C)CC(C)(O)C#CC(C)(O)CC(C)C (configuration not stated) [TMDD]		77.6 ± 7%	47.1 ± 4.9%		60.2 ± 18%			38.6 ± 6%	47.5 ± 6%	
CCCc1nc2c(C)cc(-c3nc4ccccc4n3C)cc2n1Cc1ccc(-c2ccccc2C(=O)O)cc1 [Telmisartan]	45.4 ± 5.1%		0.144 ± 0.041%	0.817 ± 0.34%	1.28 ± 0.6%	43.6 ± 3.4%	46.2 ± 1%	43.5 ± 2.1%	50.8 ± 2.5%	55.8 ± 1.8%
CN1C(=O)C(O)N=C(c2ccccc2)c2cc(Cl)ccc21 (configuration not stated) [Temazepam]	44.5 ± 6.3%	77.8 ± 3.1%	11.2 ± 0.91%	16.5 ± 0.71%	17.6 ± 1.9%	30.4 ± 4.8%	27.9 ± 3.1%	22 ± 2.1%	46.8 ± 2.9%	62.9 ± 6.2%
CC/C(=N\OC/C=C/Cl)C1=C(O)CC(C2CCOCC2)CC1=O (configuration not stated) [Tepraloxydim]	51.8 ± 3%	73.8 ± 3.1%	0.0964 ± 0.084%	0.473 ± 0.3%	0.369 ± 0.063%	47.5 ± 6.9%	48.3 ± 2.9%	41.9 ± 3.2%	40.5 ± 2.5%	45.7 ± 5%
CN(C/C=C/C#CC(C)(C)C)Cc1cccc2ccccc12 [Terbinafine]	50 ± 10%	86.4 ± 13%	0.00204 ± 0.0035%	0.065 ± 0.1%	0.00509 ± 0.0088%	0.265 ± 0.18%	0.2 ± 0.089%	0.0441 ± 0.0079%	46.4 ± 1%	
CCNc1nc(Cl)nc(NC(C)(C)C)n1 [Terbuthylazine]	45.8 ± 8%	69.5 ± 7.1%	37 ± 1%	41.3 ± 3.5%	41.4 ± 1.7%	1.41 ± 0.15%	1.28 ± 0.32%	0.724 ± 0.021%	61.8 ± 2.3%	64.8 ± 10%
CCNc1nc(NC(C)(C)C)nc(SC)n1 [Terbutryn]	48.2 ± 6.7%	68.8 ± 3.2%	21.7 ± 8.2%	21.5 ± 6.8%	22.9 ± 3.2%	1.3 ± 0.11%	1.01 ± 0.25%	0.516 ± 0.03%	46.2 ± 2.5%	
C[C@]12CC[C@H]3[C@@H](CCC4=CC(=O)CC[C@@]43C)[C@@H]1CC[C@@H]2O [Testosterone]	52.8 ± 8.8%		29.7 ± 1.9%	35.7 ± 2.2%	35.6 ± 0.61%	16 ± 3.3%	14.5 ± 1.6%	8.83 ± 2.7%		
NC(=O)/N=C1\SCCN1Cc1ccc(Cl)nc1 [Thiacloprid amide]	51.2 ± 7%	78 ± 3.3%	2.46 ± 0.75%	4 ± 1.4%	4.83 ± 0.88%	51.1 ± 5.3%	53.4 ± 4.1%	47 ± 2.8%	33.6 ± 3.3%	42.5 ± 3.4%
N#C/N=C1\SCCN1Cc1ccc(Cl)nc1 [Thiacloprid]	55.7 ± 4.2%	79.2 ± 2.9%	18.1 ± 1.4%	26.3 ± 4.2%	29.8 ± 2.2%	39.3 ± 6%	33.4 ± 2.5%	25.1 ± 4.8%	43.4 ± 3.5%	55.5 ± 5.8%
CC(=O)c1cc2c(cc1C)C(C)(C)C(C)CC2(C)C (configuration not stated) [Tonalide]	22.3 ± 6.1%		49 ± 3.7%	48.1 ± 5.2%	55.1 ± 2.9%	0.526 ± 0.91%			17.1 ± 5%	41.1 ± 12%
O=C(Nc1ccc(Cl)cc1)Nc1ccc(Cl)c(Cl)c1 [Triclocarban]	25.7 ± 4.4%	55.4 ± 4.4%	5.9 ± 0.44%	7.7 ± 0.6%	8.27 ± 0.72%	29.8 ± 8.2%	28.2 ± 4.9%	24.3 ± 4%	35 ± 5%	
Oc1cc(Cl)ccc1Oc1ccc(Cl)cc1Cl [Triclosan]	40.3 ± 7.5%	40 ± 3.5%	16 ± 1.1%	21 ± 0.84%	22 ± 1.5%	24.8 ± 8.3%	23.5 ± 2%	20.2 ± 3.3%	34.5 ± 1.1%	49.8 ± 4.3%
CCOC(=O)CC(O)(CC(=O)OCC)C(=O)OCC [Triethylcitrate]	43.2 ± 5%		23.6 ± 0.89%	23.1 ± 3.8%	26.2 ± 2.7%	18.1 ± 0.54%	26.1 ± 4.4%	17 ± 1.2%	38.1 ± 0.71%	32.4 ± 8.6%
